# Laboratory results reported in US20110065138A1, “Quantitative Method For Detecting Yessotoxins In Fishery Products On Based On The Activation That The Toxin Produces In Cellular Phosphodiesterases And Therapeutic Use Of This Activation” (UNIVERSIDADE DE SANTIAGO DE COMPOSTELA, priority 2003, published 2011).
# How the values were obtained:
# [1] = system: cellular phosphodiesterases (PDEs); assay: Activation of cellular phosphodiesterases (destruction of cAMP); format: biochemical
# Text: A usual way of detecting cellular PDE activity is to observe their ability to destroy cAMP. There is a fluorescent derivative of cAMP, anthraniloyl-cAMP (excitation wavelength: 350 nm, emission wavelength: 445 nm), the fluorescence of which decreases as it degrades. The decrease of fluorescence over time can be expressed as the destruction rate of cAMP. In the presence of PDEs, the destruction rate increases, and if these enzymes are activated, the degradation rate will be even greater. In the present invention the degradation rate of the fluorescent indicator anthraniloyl-cAMP in the presence of PDEs is determined and its variation when samples with YTX are added is studied. Fluorescence is read with a fluorimeter that is prepared for reading microtitration plates. The destruction rate is determined in the presence of several known concentrations of YTX. […]
# The method is carried out in a microtitration plate in a temperature range between 22 and 37° C. and the fluorescence is measured at an excitation wavelength of 360 nanometers and an emission wavelength of 460 nanometers.
# a.—Test buffer (10 mM Tris HCl+1 mM CaCl2 pH 7.4) is added in all the wells for a final incubation volume of 100 μL, and the corresponding amount, depending on the type of well, of anthraniloyl-cAMP. A first reading is performed for 2 minutes. […]
# [2] = system: rat mastocytes; assay: Inhibition of histamine release induced by immunological stimulus (ovalbumin) in rat mastocytes; format: cell-based
# Text: Immunological activation of mastocytes and basophils requires a temporary increase of cAMP. This increase is indispensable for cell response activation (Botana and MacGlashan, 1994). PDE activation cancels this initial cAMP peak, and therefore prevents cell activation. In the presence of YTX, i.e. with activated PDEs, cell response will be inhibited. The inhibiting effect can be used in antiallergic or antiasthmatic therapeutic strategies, these being two pathologies in which mastocytes play a predominant role (Metcalfe, Baram, D. et al., 1997). The present use describes the quantification of the inhibition that YTX produces on cell activation induced by immunological stimulus in mastocytes in rats. Cell response inhibition can be determined according to different protocols described in the literature. One in which the response is quantified according to the histamine released by mastocytes in rats into the extracellular medium is set forth below (Alfonso, Cabado, A. G. et al., 2000; Estévez, Vieytes, et al., 1994).
# a.—The rats are sensitized 15 days before conducting the experiment. […]
# g.—The histamine is finally quantified, converting it into a fluorescent molecule by reaction in a base medium with o-phthalic dialdehyde. The reaction is stopped with hydrochloric acid and the fluorescence is read at 360 nm excitation and 460 nm emission.
# [3] = system: HEP-G2 cells; assay: HEP-G2 cell growth inhibition by crystal violet staining; format: cell-based; settings: Homo sapiens, HepG2, 10 μM of YTX, 48 hours incubation, absorbance 595 nm
# Text: Neoplasic cell growth inhibition is an indicator of antitumor activity widely used to describe antineoplasic properties of new drugs. […] The ability of YTX as a cytotoxic drug for hepatic carcinoma tumor cells is quantified in the present use. Cell growth inhibition can be determined according to different protocols described in the literature. One of these protocols is set forth below in which the response is quantified in the HEP-G2 cell line by means of crystal violet staining and subsequent acetylation.
# a.—HEP-G2 cells are seeded on a microtitration plate with a density of 10000 cells per well. They are incubated for 24 hours with growth medium at 37° C. and 5% CO2.
# b.—Different concentrations of YTX are added and it is incubated for 48 hours at 37° C. and 5% CO2.
# c.—10 μL of 11% glutaraldehyde are added to fix the cells and it is incubated for 15 minutes. It is washed 3-4 times with distilled water.
# d.—A 0.1% solution of crystal violet is added and the plate is shaken for 15 minutes.
# e.—The dye is removed by washing with distilled water and it is subsequently dried.
# f.—10% acetic acid is added and shaking is maintained for 15 minutes.
# g.—Absorbance is read in a spectrophotometer at 595 nanometers.
# h.—It was found with this protocol that 10 μM of YTX induce cell growth inhibition of about 82+/−1%.
# [4] = system: cellular phosphatases; settings: in contrast to okadaic acid (Draisci, Lucentini et al., 2000); cited from earlier work
structure (smiles),measurement,setting,value
"C=CCC(=C)/C=C/[C@@](C)(O)[C@H]1O[C@@H]2C[C@@H]3O[C@@H]4C[C@@H]5O[C@@H]6C[C@@H]7O[C@@H]8C[C@@H]9O[C@@H]%10C[C@@H]%11O[C@](C)(CCOS(=O)(=O)O)[C@@H](OS(=O)(=O)O)C[C@H]%11O[C@H]%10C[C@H]9O[C@H]8CC[C@@]7(C)O[C@@]6(C)CC[C@H](C)[C@H]5O[C@H]4C[C@@]3(C)O[C@H]2CC1=C [YTX, yessotoxin]",effect on PDE activity,[1],PDE activator
same,effect on histamine release activated by immunological stimulus,[2],histamine release inhibitor
same,inhibition at 10 µM,[3],~82%
same,effect on cellular phosphatases,[4],does not inhibit
